# According to US20050107386A1, “Methods of treating diseases and disorders by targeting multiple kinases” (priority 2003, published 2005):
# Assays:
# HCT-116 cells = assay: SCID mouse/HCT-116 xenograft model; settings: for % Tumor Growth Inhibition / T/C (ratio of mean tumor volume for treated vs. vehicle control) / Tumor Volume: day 28; for Tumor Volume: mean ± SEM
# Method: In one experiment, female CB.17 SCID mice were inoculated subcutaneously in the right hind limb with 2×10^6 HCT-116 cells. […] Treatment commenced on day 8 and proceeded for the duration of the study. All the compound treatments were given i.p. in a vehicle NPS in a volume of 5 ml/kg. […] The tumor volumes were measured twice a week using calipers. Values are mean±SEM. Statistical analysis was performed using ANOVA.
# Female CB.17 SCID mice were inoculated subcutaneously in the right hind limb with 2×10^6 HCT-116 cells. […] Treatment commenced on day 8 and proceeded for the duration of the study. All the treatments were given i.p. in a vehicle NPS in a volume of 5 ml/kg.
# Female CB.17 SCID mice were inoculated subcutaneously in the right hind limb with 2×10^6 HCT-116 cells. […] Treatment commenced on day 8 and proceeded for the duration of the study. All the compound treatments were given i.p. in a vehicle NPS in a volume of 5 ml/kg. […] The tumor volumes were measured twice a week using calipers.
# Bmx(h) = target: T1, Bmx(h) (Homo sapiens, UniProt P51813); assay: Bmx(h) kinase assay; assay type: biochemical; settings: 3 μM; percent of control kinase activity
# T1 sequence (P51813 1-675): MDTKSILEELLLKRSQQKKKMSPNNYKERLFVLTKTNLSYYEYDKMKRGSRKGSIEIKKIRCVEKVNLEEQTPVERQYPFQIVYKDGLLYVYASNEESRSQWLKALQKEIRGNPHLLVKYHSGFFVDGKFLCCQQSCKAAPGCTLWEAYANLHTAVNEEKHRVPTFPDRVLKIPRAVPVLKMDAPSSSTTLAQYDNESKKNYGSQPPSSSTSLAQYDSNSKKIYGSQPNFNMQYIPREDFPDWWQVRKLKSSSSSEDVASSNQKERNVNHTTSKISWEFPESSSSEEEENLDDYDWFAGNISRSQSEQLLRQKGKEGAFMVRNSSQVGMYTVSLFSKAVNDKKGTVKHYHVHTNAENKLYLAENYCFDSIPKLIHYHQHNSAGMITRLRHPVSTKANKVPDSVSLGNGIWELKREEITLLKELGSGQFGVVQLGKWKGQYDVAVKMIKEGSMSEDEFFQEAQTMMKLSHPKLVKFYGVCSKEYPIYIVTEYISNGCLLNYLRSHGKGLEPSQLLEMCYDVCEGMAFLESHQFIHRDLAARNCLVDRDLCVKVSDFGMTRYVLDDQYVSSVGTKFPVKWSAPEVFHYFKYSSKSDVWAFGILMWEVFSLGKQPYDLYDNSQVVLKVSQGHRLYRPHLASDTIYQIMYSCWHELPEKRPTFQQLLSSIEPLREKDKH
# Method: (§1) Six compounds (presumptive single agents) were tested against a panel of 50 kinases. The results are presented in Table 2; numbers for each kinase indicate the percent of control kinase activity in the presence of a 3μM concentration of the indicated agent.
# (§2) Agents that target two or more different kinases are useful in the methods of the invention as described elsewhere herein. Such compounds may be identified, and their effect on certain kinases may be identified, using the assays briefly described below in Examples 4-83. Each of these assays was carried out as described in Davies et al., Biochem. J., 351:95-105 (2000). All assays were carried out at 10 μM ATP unless otherwise noted.
# GSK3β(h) = GSK3β(h) (Homo sapiens, UniProt P49841); assay: GSK3β(h) kinase assay; assay type: biochemical; settings: 3 μM; percent of control kinase activity
# Method: as §1, §2
# In a final reaction volume of 25 μl, GSK3β (h) (5-10 mU) is incubated with 8 mM MOPS pH 7.0, 0.2 mM EDTA, 20 μM […](p)EDEEE (phospho GS2 peptide; SEQ ID NO:3), 10 mM MgAcetate and [γ-^33P-ATP] (Specific activity approx. 500 cpm/pmol, concentration as required). The reaction is initiated by the addition of Mg^2+ [γ-^33P-ATP]. After incubation for 40 minutes at room temperature, the reaction is stopped by the addition of 5 μl of a 3% phosphoric acid solution. 10 μl of the reaction is then spotted onto a P30 filtermat and washed three times for 5 minutes in 50 mM phosphoric acid and once in methanol prior to drying and scintillation counting.
# PKD2(h) = target: T2, PKD2(h) (Homo sapiens, UniProt Q9BZL6); assay: PKD2(h) kinase assay; assay type: biochemical; settings: 3 μM; percent of control kinase activity
# T2 sequence (Q9BZL6 1-878): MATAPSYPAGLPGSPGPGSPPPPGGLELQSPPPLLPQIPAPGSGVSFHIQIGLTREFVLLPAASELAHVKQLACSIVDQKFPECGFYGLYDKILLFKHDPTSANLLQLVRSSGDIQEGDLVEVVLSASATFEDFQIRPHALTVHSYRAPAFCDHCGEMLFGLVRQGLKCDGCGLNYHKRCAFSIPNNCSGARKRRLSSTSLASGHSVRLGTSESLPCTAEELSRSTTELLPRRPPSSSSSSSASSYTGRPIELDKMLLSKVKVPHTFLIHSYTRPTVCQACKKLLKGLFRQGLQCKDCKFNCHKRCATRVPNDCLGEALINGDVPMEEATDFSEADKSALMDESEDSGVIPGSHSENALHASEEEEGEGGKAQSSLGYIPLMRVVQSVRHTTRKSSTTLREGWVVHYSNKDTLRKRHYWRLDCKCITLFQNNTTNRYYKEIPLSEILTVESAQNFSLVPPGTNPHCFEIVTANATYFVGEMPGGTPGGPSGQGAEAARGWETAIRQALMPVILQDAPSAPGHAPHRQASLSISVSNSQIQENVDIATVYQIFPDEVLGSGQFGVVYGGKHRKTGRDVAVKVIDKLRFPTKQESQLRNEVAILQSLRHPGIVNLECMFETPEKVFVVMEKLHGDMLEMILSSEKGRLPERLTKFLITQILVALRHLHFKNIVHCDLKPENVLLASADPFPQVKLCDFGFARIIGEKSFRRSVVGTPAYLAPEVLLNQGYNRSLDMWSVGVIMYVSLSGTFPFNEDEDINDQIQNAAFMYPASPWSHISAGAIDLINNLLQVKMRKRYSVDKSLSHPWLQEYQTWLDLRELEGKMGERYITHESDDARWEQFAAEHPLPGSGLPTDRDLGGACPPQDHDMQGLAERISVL
# Method: as §1, §2
# [1] = tested on: HCT-116 colon cancer cells; assay: Activation of kinases and their downstream targets in HCT-116 cells; assay type: cell-based; settings: concentration-dependent
# Text: (§3) CC001 is a low molecular weight mixed kinase inhibitor (MKI) with potent in vitro inhibitory activity against a variety of kinases.
# [2] = tested on: cancer cell lines: non-small cell lung (NSCLC); colon; pancreatic; head and neck; breast and ovarian cancers; assay: Antiproliferative activity against a broad spectrum of cancer cell lines; assay type: cell-based; settings: each of the cancer cell line types
# Text: as §3
# colon and lung tumors = assay: SCID mice bearing colon and lung tumors; assay type: in vivo, mouse; settings: 10 mg/kg to 20mg/kg twice a day, single agent
# Method: SCID mice bearing colon and lung tumors were treated with CC001 at a concentration of 10 mg/kg to 20mg/kg, administered twice a day.
# NCI-H460 NSCLC xenograft = NCI-H460 NSCLC xenograft model; assay type: in vivo; settings: CC001 combined with the maximum tolerated dose of Taxotere
# Method: A similar study was performed using an NCI-H460 NSCLC xenograft model in which CC001 was combined with the maximum tolerated dose of Taxotere (an anti-cancer compound related to taxol). […]. […]
# [3] = Table 4, i.p. 20 mg/kg b.i.d. (b.i.d. day 8-11, then qd)
# [4] = CC001 with Camptosar, model not named
# Sequence of GSK3β(h) (P49841 whole entry): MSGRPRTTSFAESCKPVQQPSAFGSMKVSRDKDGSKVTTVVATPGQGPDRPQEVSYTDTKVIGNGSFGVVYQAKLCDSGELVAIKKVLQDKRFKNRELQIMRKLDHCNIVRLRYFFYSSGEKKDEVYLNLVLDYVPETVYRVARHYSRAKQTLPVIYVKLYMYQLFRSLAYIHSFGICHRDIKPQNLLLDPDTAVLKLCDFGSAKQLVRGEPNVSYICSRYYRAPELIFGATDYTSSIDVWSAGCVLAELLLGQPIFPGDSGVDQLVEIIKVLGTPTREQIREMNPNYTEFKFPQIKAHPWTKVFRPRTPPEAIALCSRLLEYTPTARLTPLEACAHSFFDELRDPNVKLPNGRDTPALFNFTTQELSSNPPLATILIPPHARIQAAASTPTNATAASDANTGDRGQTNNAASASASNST
smiles,measurement,setting,value
"CC(C)Cc1nc(-c2ccc3[nH]nc(-c4ccc5cc(OCCN6CCCC6)ccc5c4)c3c2)n[nH]1 [CC002, 5-(5-Isobutyl-1H-[1,2,4]Triazol-3-yl)-3-[6-(2-Pyrrolidin-1-yl-Ethoxy)-Naphthalen-2-yl]-1H-Indazole]",TGD (days to reach 1000 mm^3),HCT-116 cells; [3],>12 days
same,% Tumor Growth Inhibition,HCT-116 cells; [3],68%
same,T/C (ratio of mean tumor volume for treated vs. vehicle control),HCT-116 cells; [3],35
same,Tumor Volume,HCT-116 cells; [3],792.8 ± 86.5^e mm^3
same,"tumor volumes over the course of the experiment, in words","HCT-116 cells; i.p. 20 mg/kg b.i.d. day 8-11, then qd, P<0.001 vs vehicle control",reduced tumor volumes
"COc1ccc2cc(-c3n[nH]c4ccc(-c5n[nH]c(CN6CCOCC6)n5)cc34)ccc2c1 [CC001, 3-(6-Methoxynaphthalen-2-yl)-5-(5-Morpholin-4-Ylmethyl-1H-[1,2,4]Triazol-3-yl)-1H-Indazole]","Inhibitory activity (% of control), Bmx(h)",Bmx(h),74 % of control
same,"Inhibitory activity (% of control), GSK3β(h)",GSK3β(h),12 % of control
same,"Inhibitory activity (% of control), PKD2(h)",PKD2(h),14 % of control
same,activation of kinases and their downstream targets,[1],inhibited the activation of kinases and their downstream targets
same,"antiproliferative activity, IC50 values",[2],nanomolar range
same,T/C ratio,colon and lung tumors,40-60%
same,"tumor growth, in words",colon and lung tumors,inhibited tumor growth in a dose-dependent manner
same,T/C ratio,NCI-H460 NSCLC xenograft,16-28%
same,additional toxicity as evidenced by weight loss,NCI-H460 NSCLC xenograft,No apparent additional toxicity
same,"effect on tumor development, in words",HCT-116 cells; CC001 at 20 mg/kg administered with 2.5 mg/kg Camptosar,equivalent to an administration of Camptosar alone at 10 mg/kg
same,T/C ratio,HCT-116 cells; [4],~15%
same,"in vivo effects in combination, in words",HCT-116 cells; [4],Additive in vivo effects
same,TGD (days to reach 1000 mm^3),"HCT-116 cells; Table 3, i.p. 20 mg/kg b.i.d.",>12 days
same,% Tumor Growth Inhibition,"HCT-116 cells; Table 3, i.p. 20 mg/kg b.i.d.",69.6%
same,T/C (ratio of mean tumor volume for treated vs. vehicle control),"HCT-116 cells; Table 3, i.p. 20 mg/kg b.i.d.",32
same,Tumor Volume,"HCT-116 cells; Table 3, i.p. 20 mg/kg b.i.d.",798.3 ± 71.1^e mm^3
same,% Tumor Growth Inhibition,"HCT-116 cells; Table 5, i.p. 20 mg/kg b.i.d.",69%
same,T/C (ratio of mean tumor volume for treated vs. vehicle control),"HCT-116 cells; Table 5, i.p. 20 mg/kg b.i.d.",34
same,Tumor Volume,"HCT-116 cells; Table 5, i.p. 20 mg/kg b.i.d.",752.5 ± 66.6^e mm^3
same,TGD (500 mm^3),"HCT-116 cells; Table 5, i.p. 20 mg/kg b.i.d., days to reach 500 mm^3",>7 days
same,TGD (1000 mm^3),"HCT-116 cells; Table 5, i.p. 20 mg/kg b.i.d., days to reach 1000 mm^3",>10 days
same,"tumor mass over the course of the experiment, in words","HCT-116 cells; i.p. 20 mg/kg b.i.d., P<0.001 compared to vehicle control",significantly smaller tumor mass
"CC(C)(C)Cc1nc(-c2ccc3[nH]nc(-c4ccc5cc(OCc6ccccn6)ccc5c4)c3c2)n[nH]1 [CC004, 5-[5-(2,2-Dimethyl-propyl)-1H-[1,2,4]triazol-3-yl]-3-[6-(pyridine-2-ylmethoxy)-naphthalen-2-yl]-1H-indazole]","Inhibitory activity (% of control), Bmx(h)",Bmx(h),98 % of control
same,"Inhibitory activity (% of control), GSK3β(h)",GSK3β(h),63 % of control
same,"Inhibitory activity (% of control), PKD2(h)",PKD2(h),26 % of control
"CCN1CCC[C@H]1COc1ccc2cc(-c3n[nH]c4ccc(-c5nc(CC(C)(C)C)n[nH]5)cc34)ccc2c1 [CC005, 2-[((2s)-1-ethylpyrrolidin-2-yl)methoxy]-6-{5-[3-(2,2-Dimethylpropyl)(1H-1,2,4,-triazol-5-yl)](1H-indazol-3-yl)}naphthalene]","Inhibitory activity (% of control), Bmx(h)",Bmx(h),36 % of control
same,"Inhibitory activity (% of control), GSK3β(h)",GSK3β(h),34 % of control
same,"Inhibitory activity (% of control), PKD2(h)",PKD2(h),0 % of control
